Assay results from US10273228B2, “Hepatitis B viral assembly effectors” (Indiana University Research and Technology Corporation, priority 2015, dated 2019).
Where two headings read alike, the source gives them in different places.

Experiments:
[1] = tested on: AD38 cells; assay: AD38 viability normalized to DMSO control; type: cell-based; settings: 10 μM compound, vs DMSO control
Method: (§1) AD38 cells were then re-suspended with 10 mL of treatment medium and counted. Wells of a collagen coated 96-well NUNC microtiter plate were seeded at 50,000/well in 180 μL of treatment medium, and 20 μL of either 10% DMSO (Control) or a 10× solution of test compound in 10% DMSO in treatment media was added for a final compound concentration 1, 3, or 10 μM (1.0% final [DMSO]) and plates were incubated for 6 days at 37° C.

[2] = tested on: HBV viral load, AD38 cells; assay: Activity of test compounds on viral production from AD38 cells (viral load by quantitative PCR of the core sequence in supernatant); type: cell-based, Hepatitis B virus; settings: 10 μM compound, 6 days at 37° C., vs DMSO control wells; for activity at 10 µM: Hepatitis B virus, 144 h, read-out: AD38 Viral Load (CpAM/DMSO %) at 10 μM
Method: as §1
Subsequently viral load production was assayed by quantitative PCR of the core sequence. Briefly, 5 μL of clarified supernatant was added to a PCR reaction mixture that contained forward primers HBV-f 5′-CTGTGCCTTGGGTGGCTTT-3′, Reverse primers HBV-r 5′-[…]-3′ and Fluorescent TaqMan™ Probes HBV-probe 5′-FAM/AGCTCCAAA/ZEN/[…]/3IABkFQ-3′ in Quanta Biosciences PerfeCTa® qPCR Toughmix®, and was subsequently on an Applied Biosystems VIIA7 in a final volume of 20 μL. The PCR mixture was incubated at 45° C. for 5 minutes, then 95° C. for 10 min, followed by 40 cycles of 10 seconds at 95° C. and 20 seconds at 60° C. Viral load was quantitated against known standards by using ViiA™ 7 Software. Viral load in the supernatant from wells with treated cells were compared against viral load in supernatant from DMSO control wells (≥3 per plate).

SMILES	AD38 Viability Normalized Result (CPAM/DMSO %) at 10 μM ([1]; Table 6) [%]	activity at 10 µM ([2]; Table 6) [%]	AD38 Viability Normalized Result (CPAM/DMSO %) at 10 μM ([1]; Table 9) [%]	activity at 10 µM ([2]; Table 9) [%]	AD38 Viral Load (CpAM/DMSO %) at 10 μM ([2]; Table 9) [%]
COc1ccc(S(=O)(=O)N2CCN(c3nc(C)cc(Nc4cccnc4)n3)CC2)cc1 [Compound 1234]	101	82			
O=C(O)CCCOc1ccc(S(=O)(=O)N2CCN(c3nc(Nc4ccc(F)cc4)cc(C(F)(F)F)n3)CC2)cc1 [Compound 1398, 4-(4-((4-(4-((4-fluorophenyl)amino)-6-(trifluoromethyl)pyrimidin-2-yl)piperazin-1-yl)sulfonyl)phenoxy) butanoic acid]			0	4	
COc1ccc(S(=O)(=O)N2CCN(c3nc(Nc4ccc(C)cc4)cc(N(C)C(C)(C)C)n3)CC2)cc1 [Compound 1273, N^4-(tert-butyl)-2-(4-((4-methoxyphenyl)sulfonyl)piperazin-1-yl)-N^4-methyl-N^6-(p-tolyl) pyrimidine-4,6-diamine]	98	16			
Cc1ccc(Nc2cc(C)nc(N3CCN(S(=O)(=O)c4ccc(N)nc4)CC3)n2)cc1 [Compound 1245]	99	70			
COc1ccc(S(=O)(=O)N2CCN(c3nc(C)cc(Nc4ccc(F)cc4)n3)CC2(C)C)cc1 [Compound 1370]			114	12	
Cc1ccc(S(=O)(=O)N2CCN(c3nc(Nc4ccc(F)cc4)cc(C(F)(F)F)n3)CC2)cc1 [Compound 1344]			0	2	
N#Cc1ccc(Nc2cc(-c3nccs3)nc(N3CCN(S(=O)(=O)c4ccccc4)CC3)n2)cc1 [Compound 1355]			103	5	
Cc1ccc(S(=O)(=O)N2CCN(c3nc(Oc4ccc(F)cc4)cc(-n4cnnc4)n3)CC2)cc1 [Compound 1310]	81	50			
Cc1ccc(S(=O)(=O)N2CCN(c3nc(Nc4ccc(F)cc4)cc(N(C)C)n3)CC2)cc1 [Compound 1306]	103	22			
O=S(=O)(c1ccccc1)N1CCN(c2nc(Oc3ccc(F)cc3)cc(-n3cnnc3)n2)CC1 [Compound 1311]	86	66			
COc1ccc(S(=O)(=O)N2CCN(c3nc(Nc4ccc(C)cc4)cc(N4CCCC4)n3)CC2)cc1 [Compound 1144]	100	12			
N#Cc1ccc(Nc2cc(-c3nccs3)nc(N3CCN(S(=O)(=O)c4ccc(F)cc4)CC3)n2)cc1 [Compound 1365]			98	53	
Cc1cc(Nc2ccc(F)cc2)nc(N2CCN(S(=O)(=O)c3ccc(O[C@H](C)C(=O)O)cc3)CC2)n1 [Compound 1395, (R)-2-(4-((4-(4-((4-fluorophenyl)amino)-6-methylpyrimidin-2-yl)piperazin-1-yl)sulfonyl)phenoxy) propanoic acid]			98	42	
O=S(=O)(c1ccc(OC(F)(F)F)cc1)N1CCCN(c2nc(Nc3ccc(F)cc3)cc(C(F)(F)F)n2)CC1 [Compound 1419]			93	11	
CN(C)c1cc(Nc2ccc(F)cc2)nc(N2CCN(S(=O)(=O)c3ccc(F)cc3)CC2)n1 [Compound 1302]	112	52			
COc1ccc(S(=O)(=O)N2CCN(c3cccc(Nc4ccc(C)cc4)n3)CC2)cc1 [Compound 1158]	92	51			
Cc1ccc(S(=O)(=O)N2CCN(c3nc(Nc4ccc(C#N)cc4)cc(-c4nccs4)n3)CC2)cc1 [Compound 1356]			97	6	
Cc1ccc(Nc2cc(C)nc(N3CCN(S(=O)(=O)c4cnc(N)nc4)CC3)n2)cc1 [Compound 1260]	98	78			
Cc1cc(Nc2ccc(F)cc2)nc(N2CCN(S(=O)(=O)c3ccc(OC(C)(C)C(=O)O)cc3)CC2)n1 [Compound 1403, 2-(4-((4-(4-((4-fluorophenyl)amino)-6-methylpyrimidin-2-yl)piperazin-1-yl)sulfonyl)phenoxy)-2-methylpropanoic acid]			100	83	
O=S(=O)(c1cccc(C(F)(F)F)c1)N1CCN(c2nc(Nc3ccc(F)cc3)cc(-n3cnnc3)n2)CC1 [Compound 1313]	93	47			

SMILES	AD38 Viability Normalized Result (CPAM/DMSO %) at 10 μM ([1]; Table 6) [%]	activity at 10 µM ([2]; Table 6) [%]	AD38 Viability Normalized Result (CPAM/DMSO %) at 10 μM ([1]; Table 9) [%]	activity at 10 µM ([2]; Table 9) [%]	AD38 Viral Load (CpAM/DMSO %) at 10 μM ([2]; Table 9) [%]
O=S(=O)(c1ccc(OC(F)(F)F)cc1)N1CCN(c2nc(Nc3ccc(F)cc3)cc(-c3nccs3)n2)CC1 [Compound 1367]			105		44
Cc1ccc(Nc2cc(C)nc(N3CCN(S(=O)(=O)c4cccc5ccccc45)CC3)n2)cc1 [Compound 1135]	107	16			
CCCCOc1ccc(S(=O)(=O)N2CCN(c3nc(Nc4ccc(C#N)cc4)cc(-c4cncs4)n3)CC2)cc1 [Compound 1369]			96	56	
CCOc1ccc(S(=O)(=O)N2CCN(c3nc(Nc4ccc(C#N)cc4)cc(C(F)(F)F)n3)CC2)cc1 [Compound 1333]			85	2	
Cc1cc(Nc2ccc(F)cc2)nc(N2CCN(S(=O)(=O)c3ccc(OCCN(C)C)cc3)CC2)n1 [Compound 1378, 2-(4-((4-(2-(dimethylamino)ethoxy)phenyl)sulfonyl)piperazin-1-yl)-N-(4-fluorophenyl)-6-methylpyrimidin-4-amine]			1	13	
COc1ccc(S(=O)(=O)N2CCN(c3nc(Nc4ccc(C)cc4)cc(-n4cncn4)n3)CC2)cc1 [Compound 1230]	95	0			
COc1cccc(S(=O)(=O)N2CCN(c3cc(C)nc(Nc4ccc(C)cc4)n3)CC2)c1 [Compound 1151]	73	1			
Cc1ccc(S(=O)(=O)N2CCN(c3nc(Oc4ccc(F)cc4)cc(C(C)C)n3)CC2)cc1 [Compound 1288]	105	102			
COc1ccc(S(=O)(=O)N2CCN(c3nc(C)cc(Nc4ccncc4)n3)CC2)cc1 [Compound 1240]	102	46			
CNc1cc(Nc2ccc(C)cc2)nc(N2CCN(S(=O)(=O)c3ccc(OC)cc3)CC2)n1 [Compound 1243]	109	32			
COc1ccc(S(=O)(=O)N2CCN(c3nc(C)cc(Nc4ccc(C)nc4)n3)CC2)cc1 [Compound 1194]	109	64			
CCOc1ccc(S(=O)(=O)N2CCN(c3nc(C)cc(Nc4ccc(F)cc4)n3)CC2)cc1 [Compound 1336]			103	59	
COc1ccc(S(=O)(=O)N2CCN(c3nc(Nc4ccc(C)cc4)cc(OC)n3)CC2)cc1 [Compound 1157]	96	35			
O=S(=O)(c1ccccc1)N1CCN(c2nc(Nc3ccc(F)cc3)cc(-n3cnnc3)n2)CC1 [Compound 1314]	94	36			
O=S(=O)(c1ccc(F)cc1)N1CCN(c2nc(Oc3ccc(F)cc3)cc(-n3cnnc3)n2)CC1 [Compound 1307]	94	84			
COC(=O)CCCOc1ccc(S(=O)(=O)N2CCN(c3nc(Nc4ccc(F)cc4)cc(C(F)(F)F)n3)CC2)cc1 [Compound 1397, methyl 4-(4-((4-(4-((4-fluorophenyl)amino)-6-(trifluoromethyl)pyrimidin-2-yl)piperazin-1-yl)sulfonyl)phenoxy) butanoate]			33		5
COCCOc1ccc(S(=O)(=O)N2CCN(c3nc(Nc4ccc(F)cc4)cc(C(F)(F)F)n3)CC2)cc1 [Compound 1407]			91	12	
CN(C)c1cc(Oc2ccc(F)cc2)nc(N2CCN(S(=O)(=O)c3ccccc3)CC2)n1 [Compound 1299]	112	54			
COc1ccc(S(=O)(=O)N2CCN(c3nc(Nc4ccc(C)cc4)cc(N(C)C(C)C)n3)CC2)cc1 [Compound 1248]	33	8			
